Assay results published in ChEMBL document CHEMBL1201862, “PubChem BioAssay data set” (2004).
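All cell lines were grown in 96-well plates and treated with compound for 48 hours. At the GI50, growth is halved.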 Active and inactive are the calls of the source. No stated cut-off is given here; in the data, active = GI50 up to about 1.1 µM and inactive = higher.

How the values were obtained:
Test in all cases: NCI-60 cell line screen, 48 h
RXF 393 = tested on: RXF 393
MOLT-4 = tested on: MOLT-4
U-251 = tested on: U-251
UO-31 = tested on: UO-31
OVCAR-5 = tested on: OVCAR-5
KM12 = tested on: KM12
SNB-75 = tested on: SNB-75
NCI-H23 = tested on: NCI-H23
HL-60 = tested on: HL-60
M14 = tested on: M14
TK-10 = tested on: TK-10
A549 = tested on: A549
SK-MEL-2 = tested on: SK-MEL-2
LOX IMVI = tested on: LOX IMVI
SF-295 = tested on: SF-295
NCI-H460 = tested on: NCI-H460
EKVX = tested on: EKVX

Measured: GI50

COC1CCCc2c(OC(C)=O)ccc(OC(C)=O)c21 (stereo unspecified)
inactive: RXF 393 > 100 µM | MOLT-4 > 100 µM | U-251 > 100 µM | UO-31 > 100 µM | OVCAR-5 > 100 µM | KM12 > 100 µM | SNB-75 > 100 µM | NCI-H23 > 100 µM | HL-60 > 100 µM | M14 > 100 µM | TK-10 > 100 µM | A549 > 100 µM | SK-MEL-2 > 100 µM | LOX IMVI > 100 µM

C=C1C(=O)O[C@H]2[C@H]1[C@H](OC(=O)/C(C)=C\C)CC(=C)[C@@H]1[C@H](O)[C@H]3O[C@@]3(C)[C@@]12O [EUPATUNDIN]
inactive: U-251 > 100 µM | SF-295 > 100 µM | UO-31 > 100 µM | NCI-H460 > 100 µM | KM12 > 100 µM | SNB-75 > 100 µM | EKVX > 100 µM | NCI-H23 > 100 µM | M14 > 100 µM | TK-10 > 100 µM | A549 > 100 µM | SK-MEL-2 > 100 µM | LOX IMVI > 100 µM

C=C[C@@]1(C)CCC2(O)C(CCC3C2(C)CCC[C@@]3(C)COC(=O)CC(=O)OC)C1 (stereo partly specified)
inactive: RXF 393 23.7 µM | MOLT-4 17.2 µM | U-251 17.9 µM | UO-31 22.6 µM | NCI-H460 34.3 µM | OVCAR-5 20.1 µM | KM12 18.1 µM | SNB-75 19.9 µM | NCI-H23 20.6 µM | HL-60 19.2 µM | M14 18.1 µM | TK-10 18.7 µM | A549 17.6 µM | LOX IMVI 16.5 µM

CN(C)CCC(CCN(C)C)=NO
inactive: RXF 393 > 100 µM | MOLT-4 > 100 µM | U-251 > 100 µM | SF-295 > 100 µM | UO-31 > 100 µM | NCI-H460 > 100 µM | KM12 > 100 µM | SNB-75 > 100 µM | EKVX > 100 µM | NCI-H23 > 100 µM | HL-60 > 100 µM | M14 > 100 µM | TK-10 > 100 µM | A549 > 100 µM | SK-MEL-2 > 100 µM

CSC1=NC=CCN1C
inactive: MOLT-4 > 100 µM | U-251 > 100 µM | SF-295 > 100 µM | UO-31 > 100 µM | NCI-H460 > 100 µM | OVCAR-5 > 100 µM | KM12 > 100 µM | SNB-75 > 100 µM | EKVX > 100 µM | NCI-H23 > 100 µM | HL-60 > 100 µM | M14 > 100 µM | TK-10 > 100 µM | A549 > 100 µM | SK-MEL-2 > 100 µM | LOX IMVI > 100 µM

Sc1nnc(-c2ccccc2)n1/N=C\c1ccc(-c2ccc(Cl)cc2)o1
inactive: MOLT-4 > 100 µM | U-251 > 100 µM | SF-295 > 100 µM | UO-31 > 100 µM | NCI-H460 > 100 µM | OVCAR-5 > 100 µM | KM12 > 100 µM | SNB-75 > 100 µM | NCI-H23 > 100 µM | HL-60 > 100 µM | M14 > 100 µM | TK-10 > 100 µM | A549 > 100 µM | LOX IMVI > 100 µM

NC(=O)/N=C1\NC(Cc2ccccc2)C(=O)N1Cc1ccccc1 (stereo unspecified)
inactive: RXF 393 > 100 µM | MOLT-4 > 100 µM | U-251 > 100 µM | SF-295 > 100 µM | UO-31 > 100 µM | NCI-H460 > 100 µM | OVCAR-5 > 100 µM | KM12 > 100 µM | SNB-75 89.9 µM | EKVX > 100 µM | NCI-H23 > 100 µM | HL-60 > 100 µM | M14 > 100 µM | TK-10 > 100 µM | A549 > 100 µM | LOX IMVI > 100 µM

Cc1ccc2ccc(-c3ccccc3)c3c2c1C(=O)c1ccccc1C3=O
inactive: RXF 393 61 µM | MOLT-4 > 100 µM | U-251 > 100 µM | SF-295 93.1 µM | UO-31 > 100 µM | OVCAR-5 > 100 µM | KM12 > 100 µM | SNB-75 18.3 µM | EKVX > 100 µM | NCI-H23 > 100 µM | HL-60 > 100 µM | M14 79.8 µM | TK-10 > 100 µM | A549 > 100 µM | SK-MEL-2 > 100 µM | LOX IMVI > 100 µM

CCCCCCCC/C=C1\CCC(CN(C)C)C1=O (stereo unspecified)
inactive: MOLT-4 2.68 µM | U-251 2.14 µM | SF-295 6.5 µM | UO-31 11 µM | NCI-H460 10.7 µM | OVCAR-5 20.2 µM | KM12 2.31 µM | SNB-75 5.25 µM | EKVX 9.06 µM | NCI-H23 10.7 µM | HL-60 5.05 µM | M14 4.88 µM | TK-10 2.54 µM | A549 19.3 µM | SK-MEL-2 12 µM | LOX IMVI 1.92 µM

CCOc1cccc2cccnc12
inactive: RXF 393 > 100 µM | MOLT-4 > 100 µM | SF-295 > 100 µM | UO-31 > 100 µM | NCI-H460 > 100 µM | OVCAR-5 > 100 µM | KM12 > 100 µM | SNB-75 > 100 µM | EKVX > 100 µM | NCI-H23 > 100 µM | HL-60 > 100 µM | M14 > 100 µM | TK-10 > 100 µM | A549 > 100 µM | LOX IMVI > 100 µM

O=C(O)c1ccccc1NS(=O)(=O)c1ccc(Cl)cc1
inactive: RXF 393 > 100 µM | MOLT-4 > 100 µM | U-251 > 100 µM | UO-31 > 100 µM | NCI-H460 > 100 µM | OVCAR-5 > 100 µM | SNB-75 > 100 µM | EKVX > 100 µM | NCI-H23 > 100 µM | M14 > 100 µM | TK-10 > 100 µM | A549 > 100 µM | SK-MEL-2 > 100 µM | LOX IMVI > 100 µM

CC1=NC(C(C)C)C(=O)O1 (stereo unspecified)
inactive: MOLT-4 > 100 µM | U-251 > 100 µM | SF-295 > 100 µM | UO-31 > 100 µM | NCI-H460 > 100 µM | OVCAR-5 > 100 µM | KM12 > 100 µM | SNB-75 > 100 µM | EKVX > 100 µM | NCI-H23 > 100 µM | HL-60 > 100 µM | M14 > 100 µM | TK-10 > 100 µM

COc1ccc(/C(=C/n2ccnc2)C(O)c2ccc(OC)c(OC)c2)cc1OC (stereo unspecified)
inactive: RXF 393 33.3 µM | MOLT-4 > 100 µM | U-251 > 100 µM | SF-295 > 100 µM | UO-31 > 100 µM | NCI-H460 71.6 µM | OVCAR-5 > 100 µM | KM12 > 100 µM | SNB-75 51.9 µM | NCI-H23 > 100 µM | HL-60 28.8 µM | M14 > 100 µM | TK-10 > 100 µM | SK-MEL-2 > 100 µM | LOX IMVI > 100 µM
